# Test results as given in publication PMC13516501 (Pharmaceuticals, 2026).
# Test: Single-dose, randomized, two-way crossover bioequivalence/pharmacokinetic studies A-D under fed conditions (plasma LC-MS/MS, NCA)
# Conditions: reference formulation, Study C, metformin 850 mg, empagliflozin […] mg, n 35
# Protocol: To ensure standardization, all subjects underwent at least 10 h of overnight pre-dose fasting on the study day. Participants then received a standardized high-fat, high-calorie breakfast (approximately 800 kcal). Dosing was administered 30 min after the start of this meal, followed by the intake of a 10% glucose solution (250 mL). The glucose solution was administered as a prophylactic measure to reduce the risk of hypoglycemia. It was not intended to simulate fed-state caloric intake beyond the standardized meal, in accordance with institutional clinical practice.
# Each study period included a one-day treatment followed by a 14-day washout period. […] All adverse events, including duration, severity, causality, and outcomes, were strictly monitored and recorded by the principal investigator and medical staff throughout the study.
# Promptly after collection, the samples were centrifuged at 3500 rpm for 10 min at 4 °C to separate the plasma. The harvested plasma was then transferred into appropriately labeled cryovials and immediately cryopreserved at −70 ± 15 °C until bioanalytical quantification. […]
# The primary pharmacokinetic parameters evaluated to establish bioequivalence were the maximum observed plasma concentration (Cmax) and the area under the concentration–time curve from time zero to the last measurable concentration (AUC0-t). […]
compound,measurement,value
CN(C)C(=N)N=C(N)N [Metformin],AUC0-t (mean),"13,288.1 ng⋅h/mL"
